Experiments:
human MLKL (full length) = human MLKL (full length) (Homo sapiens (Human), UniProt Q8NB16); assay: KINOMEscan binding assay, human MLKL (full length); conditions: KINOMEscan, Table 21; read-out: Human MLKL (full-length) (KD)
Outline: (§1)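 Competition binding format with qPCR detection. Kinases, either phage-fused from E. coli lysates or HEK-293-derived with a DNA tag, bound ligand-coated beads in the presence of compound (11 points, 3-fold steps, 1% DMSO, top usually 30,000 nM). Kd from nonlinear Hill fitting with slope −1.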

human RIPK1 = human RIPK1 (Homo sapiens (Human), UniProt Q13546); assay: KINOMEscan binding assay, human RIPK1; conditions: Table 21
Chain of human RIPK1 (Q13546 whole entry): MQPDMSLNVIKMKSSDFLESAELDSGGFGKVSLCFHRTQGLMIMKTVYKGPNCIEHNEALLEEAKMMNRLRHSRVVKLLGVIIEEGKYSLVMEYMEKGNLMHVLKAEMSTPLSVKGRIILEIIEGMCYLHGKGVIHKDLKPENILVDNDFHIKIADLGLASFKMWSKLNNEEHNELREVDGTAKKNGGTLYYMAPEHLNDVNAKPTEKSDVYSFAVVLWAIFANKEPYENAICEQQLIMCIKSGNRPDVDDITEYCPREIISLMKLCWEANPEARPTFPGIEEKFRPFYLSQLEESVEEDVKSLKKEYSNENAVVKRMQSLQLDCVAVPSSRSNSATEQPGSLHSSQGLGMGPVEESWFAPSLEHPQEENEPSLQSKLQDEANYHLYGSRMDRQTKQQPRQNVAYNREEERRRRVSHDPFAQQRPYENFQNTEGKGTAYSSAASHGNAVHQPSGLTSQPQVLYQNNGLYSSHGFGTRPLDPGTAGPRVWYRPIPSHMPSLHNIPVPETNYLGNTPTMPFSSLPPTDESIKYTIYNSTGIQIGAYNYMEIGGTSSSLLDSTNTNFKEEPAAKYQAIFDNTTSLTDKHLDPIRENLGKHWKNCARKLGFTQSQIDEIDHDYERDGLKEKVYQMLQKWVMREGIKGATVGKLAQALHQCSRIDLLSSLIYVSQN
Outline: as §1

human RIPK3 = human RIPK3 (Homo sapiens (Human), UniProt Q9Y572); assay: KINOMEscan binding assay, human RIPK3; conditions: Table 21
Chain of human RIPK3 (Q9Y572 whole entry): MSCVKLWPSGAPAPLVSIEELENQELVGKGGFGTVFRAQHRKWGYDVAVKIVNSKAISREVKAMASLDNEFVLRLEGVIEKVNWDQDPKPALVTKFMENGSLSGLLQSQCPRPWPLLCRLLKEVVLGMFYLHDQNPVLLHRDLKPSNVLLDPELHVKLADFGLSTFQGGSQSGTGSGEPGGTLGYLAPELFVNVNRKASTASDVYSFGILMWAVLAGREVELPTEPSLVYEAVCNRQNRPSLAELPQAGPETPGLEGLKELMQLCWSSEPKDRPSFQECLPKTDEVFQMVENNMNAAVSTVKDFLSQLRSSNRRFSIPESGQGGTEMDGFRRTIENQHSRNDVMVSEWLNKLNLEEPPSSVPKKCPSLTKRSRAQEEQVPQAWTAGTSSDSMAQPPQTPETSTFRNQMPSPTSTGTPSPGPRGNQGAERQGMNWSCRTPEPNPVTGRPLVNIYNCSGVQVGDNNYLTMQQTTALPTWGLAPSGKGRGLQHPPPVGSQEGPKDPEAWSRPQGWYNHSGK
Outline: as §1

Chain of human MLKL (full length) (Q8NB16 whole entry, the tested form may be a part): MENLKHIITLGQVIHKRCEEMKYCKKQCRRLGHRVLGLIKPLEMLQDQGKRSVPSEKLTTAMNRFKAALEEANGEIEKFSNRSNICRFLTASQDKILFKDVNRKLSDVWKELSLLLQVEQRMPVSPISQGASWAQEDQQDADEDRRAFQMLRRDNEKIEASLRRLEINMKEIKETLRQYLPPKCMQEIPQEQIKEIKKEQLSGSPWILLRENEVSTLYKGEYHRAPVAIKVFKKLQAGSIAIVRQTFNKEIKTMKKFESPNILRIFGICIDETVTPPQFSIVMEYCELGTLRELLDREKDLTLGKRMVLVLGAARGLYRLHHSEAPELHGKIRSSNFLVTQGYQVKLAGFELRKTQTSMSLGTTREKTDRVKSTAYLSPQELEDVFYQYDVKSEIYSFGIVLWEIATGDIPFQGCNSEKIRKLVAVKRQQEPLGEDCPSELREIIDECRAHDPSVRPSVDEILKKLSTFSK

Kd (human MLKL (full length)) [µM] | Kd (human RIPK1) [µM] | Kd (human RIPK3) [µM] | Compound
< 0.001 | > 10 | > 10 | C[C@H](Oc1cc(-c2nn(C)c3c(-c4ccc5c(c4)n(C)c(=O)n5C)cnc(N)c23)ccc1NS(=O)(=O)C(F)F)c1ccc(F)cc1 [Compound 161, (S)-N-(4-(4-amino-7-(1,3-dimethyl-2-oxo-2,3-dihydro-1H-benzo[d]imidazol-5-yl)-1-methyl-1H-pyrazolo[4,3-c]pyridin-3-yl)-2-(1-(4-fluorophenyl)ethoxy)phenyl)-1,1-difluoromethanesulfonamide]
< 0.001 | > 10 | > 10 | C[C@H](Oc1cc(-c2nn(C)c3c(-c4cnn(C5CC(C)(C)N(C)C(C)(C)C5)c4)cnc(N)c23)ccc1NS(=O)(=O)C(F)F)c1ccc(F)cc1 [Compound 162, (S)-N-(4-(4-amino-1-methyl-7-(1-(1,2,2,6,6-pentamethylpiperidin-4-yl)-1H-pyrazol-4-yl)-1H-pyrazolo[4,3-c]pyridin-3-yl)-2-(1-(4-fluorophenyl)ethoxy)phenyl)-1,1-difluoromethanesulfonamide]
< 0.001 | > 10 | > 10 | C[C@H](Oc1cc(-c2nn(C)c3c(-c4cnn(C5C[C@H]6CNC[C@H]6C5)c4)cnc(N)c23)ccc1NS(=O)(=O)C(F)F)c1ccc(F)cc1 (stereo partly drawn) [Compound 163, N-(4-(4-amino-1-methyl-7-(1-((3aR,6aS)-octahydrocyclo-penta[c]pyrrol-5-yl)-1H-pyrazol-4-yl)-1H-pyrazolo[4,3-c]pyridin-3-yl)-2-((S)-1-(4-fluoropohenyl)eth-oxy)phenyl)-1,1-difluoromethane-sulfonamide]
< 0.001 | > 10 | > 10 | C[C@H](Oc1cc(-c2nn(C)c3c(-c4cnn(C5C[C@@H]6CN(C)C[C@@H]6C5)c4)cnc(N)c23)ccc1NS(=O)(=O)C(F)F)c1ccc(F)cc1 (stereo partly drawn) [Compound 164, N-(4-(4-amino-1-methyl-7-(1-((3aR,6aS)-2-methyloctahydrocyclo-penta[c]pyrrol-5-yl)-1H-pyrazol-4-yl)-1H-pyrazolo[4,3-c]pyridin-3-yl)-2-((S)-1-(4-fluorophenyl)eth-oxy)phenyl)-1,1-difluoromethane-sulfonamide]

Source: patent publication US20250115598A1 (Anaxis Pharma Pty Ltd, priority 2021, published 2025)
